One assay has as its target T1, Cytochrome P450 2B6 (Homo sapiens, UniProt P20813).
T1 sequence (P20813 whole entry): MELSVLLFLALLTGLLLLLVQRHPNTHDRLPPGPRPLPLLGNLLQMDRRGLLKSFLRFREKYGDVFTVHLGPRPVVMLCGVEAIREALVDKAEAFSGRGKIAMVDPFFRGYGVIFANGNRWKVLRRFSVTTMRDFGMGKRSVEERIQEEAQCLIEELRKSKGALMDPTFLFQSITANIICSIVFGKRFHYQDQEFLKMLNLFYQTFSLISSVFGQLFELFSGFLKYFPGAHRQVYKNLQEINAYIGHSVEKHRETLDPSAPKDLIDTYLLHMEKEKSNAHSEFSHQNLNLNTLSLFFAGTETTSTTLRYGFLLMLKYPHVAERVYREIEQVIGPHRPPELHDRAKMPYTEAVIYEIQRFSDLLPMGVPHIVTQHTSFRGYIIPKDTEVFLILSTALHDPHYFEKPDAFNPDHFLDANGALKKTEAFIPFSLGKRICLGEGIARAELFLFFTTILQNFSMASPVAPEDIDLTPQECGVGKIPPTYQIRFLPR
As to the kind of experiment: Inhibition of CYP2B6. Type of assay: ADME.

Assay [1] deals with Mus musculus. Nature of the assay: In vivo inhibition of mTORC1 in mouse bearing human MDA-MB-361 cells assessed as inhibition of S6K phosphorylation at 50 mg/kg, po. Type of assay: functional, organism-based. Further details: dose 50 mg/kg.
Assay [2] can be described thus: Inhibition of PI3K-alpha […] mutant.
The target of the next assay is T2, Cytochrome P450 2C8 (Homo sapiens, UniProt P10632).
T2 sequence (P10632 whole entry): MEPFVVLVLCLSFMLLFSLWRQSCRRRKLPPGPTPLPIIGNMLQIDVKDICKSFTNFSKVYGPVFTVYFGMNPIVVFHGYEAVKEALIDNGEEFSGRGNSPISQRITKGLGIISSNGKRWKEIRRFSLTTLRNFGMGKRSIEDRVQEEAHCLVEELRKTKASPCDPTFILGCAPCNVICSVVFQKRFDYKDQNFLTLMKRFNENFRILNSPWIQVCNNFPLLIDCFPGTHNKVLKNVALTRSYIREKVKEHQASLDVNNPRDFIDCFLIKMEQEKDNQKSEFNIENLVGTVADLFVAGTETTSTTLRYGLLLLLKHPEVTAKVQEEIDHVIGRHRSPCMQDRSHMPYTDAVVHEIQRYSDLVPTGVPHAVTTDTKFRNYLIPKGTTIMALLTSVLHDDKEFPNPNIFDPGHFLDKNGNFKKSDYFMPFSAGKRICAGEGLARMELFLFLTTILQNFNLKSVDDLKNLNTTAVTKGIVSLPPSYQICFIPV
As to the kind of experiment: Inhibition of CYP2C8. Type of assay: ADME.

The test system of assay [3] is Mus musculus. As to the kind of experiment: In vivo inhibition of PI3K in mouse bearing human MDA-MB-361 cells assessed as inhibition of AKT phosphorylation at 50 mg/kg, po. The assay is classed as functional, organism-based. Further details: dose 50 mg/kg.
Another assay has as its target Cytochrome P450 2D6 (Homo sapiens, UniProt P10635). Nature of the assay: Inhibition of CYP2D6. Type of assay: ADME.

One may read the IC50 as the concentration at which inhibition is half-maximal.

The structures appear in SMILES notation. Active and inactive are the calls of the source. The calls are words filed in the database; no cut-off is given here.

Cytochrome P450 2D6, sequence (P10635 whole entry): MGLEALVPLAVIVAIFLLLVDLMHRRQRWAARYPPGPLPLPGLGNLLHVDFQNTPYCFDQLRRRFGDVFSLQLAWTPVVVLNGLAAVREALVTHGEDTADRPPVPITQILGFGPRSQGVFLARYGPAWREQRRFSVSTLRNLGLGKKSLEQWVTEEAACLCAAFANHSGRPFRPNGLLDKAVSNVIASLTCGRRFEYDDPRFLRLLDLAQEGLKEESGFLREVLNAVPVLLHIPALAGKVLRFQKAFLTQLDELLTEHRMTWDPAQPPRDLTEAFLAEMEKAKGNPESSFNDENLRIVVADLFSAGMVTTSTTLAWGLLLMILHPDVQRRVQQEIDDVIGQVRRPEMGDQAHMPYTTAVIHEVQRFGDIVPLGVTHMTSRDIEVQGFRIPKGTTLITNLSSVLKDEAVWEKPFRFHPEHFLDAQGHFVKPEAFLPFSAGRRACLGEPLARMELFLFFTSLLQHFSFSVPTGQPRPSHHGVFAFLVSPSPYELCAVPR

Consider `O=C(Nc1ccncc1)Nc1ccc(-c2nc(N3CCOCC3)nc(N3C4CCC3COC4)n2)cc1` [PKI-179], for which the IC50 on Cytochrome P450 2B6 was greater than 30 µM; in assay [2], 0.011 µM; against Cytochrome P450 2C8, 3 µM; against Cytochrome P450 2D6, greater than 30 µM. The inhibition entry in the assay on Mus musculus [1] and in the assay with Mus musculus [3] was “Active” in each case.

The values are drawn from ChEMBL document CHEMBL1255533, “PKI-179: an orally efficacious dual phosphatidylinositol-3-kinase (PI3K)/mammalian target of rapamycin (mTOR) inhibitor” (Bioorg Med Chem Lett, 2010).
